Assays:
Format in all cases: functional
MCF7 = assay: Growth inhibition of estrogen-dependent human MCF7 cells
MDA-MB-231 = assay: Growth inhibition of estrogen-independent human MDA-MB-231 cells
M21 = assay: Growth inhibition of human M21 cells
HT-29 = assay: Growth inhibition of human HT-29 cells

Structure (SMILES)	GI50 (MCF7)	GI50 (MDA-MB-231)	GI50 (M21)	GI50 (HT-29)
Oc1ccc(/C(=C(\F)c2ccccc2)c2ccc(OCCN3CCCC3)cc2)cc1	5.6 µM	10.6 µM	6.8 µM	8.9 µM
CC/C(=C(\c1ccccc1)c1ccc(OCCN(C)C)cc1)c1ccccc1 [TAMOXIFEN]	–	18.8 µM	11 µM	9.5 µM
Oc1ccc(/C(=C(\F)c2ccccc2)c2ccc(OCCN3CCCCC3)cc2)cc1	8.4 µM	25.8 µM	15.9 µM	8.9 µM
Oc1ccc(C(=C(F)c2ccccc2)c2ccccc2)cc1 (mixture of isomers)	21.3 µM	46.9 µM	53 µM	32.8 µM
F/C(=C(/c1ccccc1)c1ccc(OCCN2CCCCC2)cc1)c1ccccc1	8.8 µM	12.5 µM	5.6 µM	7.3 µM
F/C(=C(\c1ccccc1)c1ccc(OCCN2CCCC2)cc1)c1ccccc1	41.7 µM	> 100 µM	44 µM	40.3 µM
OCc1ccc(/C(=C(\F)c2ccccc2)c2ccc(OCCN3CCCCC3)cc2)cc1	7.4 µM	12.6 µM	5.9 µM	6.9 µM
O=Cc1ccc(/C(=C(\F)c2ccccc2)c2ccc(OCCN3CCCCC3)cc2)cc1	5.6 µM	10.6 µM	4.2 µM	5.9 µM
CN(C)CCOc1ccc(/C(=C(/F)c2ccccc2)c2ccccc2)cc1	10.4 µM	22.2 µM	13.5 µM	10.5 µM
F/C(=C(\c1ccccc1)c1ccc(OCCN2CCCCC2)cc1)c1ccccc1	6.5 µM	14.4 µM	5.8 µM	8.7 µM
Oc1ccc(C(=C(F)c2cccc(C(F)(F)F)c2)c2ccccc2)cc1	71.7 µM	105 µM	89.6 µM	59.8 µM
CN(C)CCOc1ccc(/C(=C(/F)c2ccccc2)c2ccc(O)cc2)cc1	3.6 µM	7.3 µM	4.4 µM	8.7 µM
